Assay results from patent publication US20230382984A1, “TRABD PROTEIN, AND MONOCLONAL ANTIBODY THEREOF, AND ISOLATION, AMPLIFICATION AND USE THEREOF” (priority 2022, published 2023).

Tests used:
TRABD2A protein [1] = target: T1, TRABD2A protein (Homo sapiens, UniProt Q86V40); details: different view; metal ions; cited from earlier work
T1 sequence (Q86V40 22-480): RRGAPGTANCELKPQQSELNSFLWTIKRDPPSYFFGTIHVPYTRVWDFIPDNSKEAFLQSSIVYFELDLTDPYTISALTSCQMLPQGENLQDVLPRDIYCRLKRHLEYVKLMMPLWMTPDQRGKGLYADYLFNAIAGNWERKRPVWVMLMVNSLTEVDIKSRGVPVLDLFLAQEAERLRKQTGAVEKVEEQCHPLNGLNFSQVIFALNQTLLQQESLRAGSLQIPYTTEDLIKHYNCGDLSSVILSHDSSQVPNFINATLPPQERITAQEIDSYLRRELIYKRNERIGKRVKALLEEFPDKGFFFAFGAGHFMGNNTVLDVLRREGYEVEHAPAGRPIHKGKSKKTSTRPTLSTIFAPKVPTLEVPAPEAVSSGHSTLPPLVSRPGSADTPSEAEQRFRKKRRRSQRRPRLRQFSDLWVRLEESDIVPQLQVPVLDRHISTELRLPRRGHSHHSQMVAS

TRABD protease = details: cited from earlier work; for function of TRABD protein: divalent metal ion complexing agent; for TRABD protease activity: early study, metal ions
[2] = target: T2, TRABD2A metalloprotease on CD8^+ T cells (Homo sapiens, UniProt Q86V40); experiment: Killing activity of CD8+ T cells on target cells after metal cofactor intervention of TRABD2A; format: cell-based; details: metal cations at different concentrations acting on CD8+ T cells; target cells CEM.T2 and MGC; FIG. 4A
T2 construct: action of metal ions Mn^2+, Co^2+ and Ni^2+ on TRABD2A metalloprotease on CD8^+ T cells; endogenous in cells
T2 sequence (Q86V40 22-480): T1 sequence (Q86V40 22-480)
Excerpt: Since TRABD2A is a metalloprotease and its activity is affected by metal ions, and the metal ion Mn^2+ having an accelerating effect on TRABD2A metalloprotease activity and metal ions Co^2+ and Ni^2+ having an inhibiting effect were examined. The effect of the TRABD2A protein on CD8^+ T cells was observed by the action of metal ions Mn^2+, Co^2+ and Ni^2+ on TRABD2A metalloprotease on CD8^+ T cells.

[3] = tested on: CD8^+ T cells and target cells; experiment: CCK8 and flow cytometry detection of toxic effect of metal cations; details: concentration of 20 μM
Excerpt: FIG. 4A show the effect on the target cell killing ability of CD8^+ T cells after metal cofactor intervention of TRABD2A; • A: detection of the killing activity of the CD8^+ T cells on target cells CEM.T2 when metal cations Co^2+, Ni^2+ and Mn^2+ at different concentrations act on CD8^+ T cells; • B: detection of the killing activity of the CD8^+ T cells on target cells MGC when metal cations Co^2+, Ni^2+ and Mn^2+ at different concentrations act on CD8^+ T cells; • C: CCK8 and flow cytometry detection of the toxic effect of metal cations Co^2+, Ni^2+ and Mn^2+ at different concentrations on target cells.

[4] = target: TRABD2A protein (antigen) (UniProt Q86V40); experiment: ELISA; negative control; fit value beyond top concentration
target cells = experiment: CCK8 and flow cytometry detection of toxic effect of Ni2+ on target cells; format: cell-based; details: concentration 20 μM
[5] = target: T3, TRABD2B metalloprotease on CD8^+ T cells (Homo sapiens, UniProt A6NFA1); experiment: Killing activity of CD8+ T cells on target cells after metal cofactor intervention with TRABD2B; format: cell-based; details: Ni2+ at different concentrations; target cells CEM.T2; FIG. 4B
T3 construct: action of metal ion Ni^2+ upon TRABD2B metalloprotease on CD8^+ T cells; endogenous in cells
T3 sequence (A6NFA1 20-486): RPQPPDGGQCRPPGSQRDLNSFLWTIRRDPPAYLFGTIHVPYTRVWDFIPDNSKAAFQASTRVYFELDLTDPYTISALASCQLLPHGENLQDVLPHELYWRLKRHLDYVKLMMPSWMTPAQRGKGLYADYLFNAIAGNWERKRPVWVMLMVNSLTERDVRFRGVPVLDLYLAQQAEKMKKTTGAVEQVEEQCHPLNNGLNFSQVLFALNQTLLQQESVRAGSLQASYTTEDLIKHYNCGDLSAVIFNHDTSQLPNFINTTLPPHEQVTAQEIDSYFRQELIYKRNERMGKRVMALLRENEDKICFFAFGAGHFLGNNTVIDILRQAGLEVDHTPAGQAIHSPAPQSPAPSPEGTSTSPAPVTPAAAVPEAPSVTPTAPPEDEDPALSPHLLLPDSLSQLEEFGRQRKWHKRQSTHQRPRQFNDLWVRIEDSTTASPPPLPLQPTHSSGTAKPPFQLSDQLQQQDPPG
Excerpt: Since TRABD2B is a metalloprotease whose activity is affected by metal ions, metal ion Mn^2+ that promotes the TRABD2B metalloprotease activity was examined. The effect of the TRABD2B protein on CD8^+ T cells was observed by the action of metal ion Ni^2+ upon TRABD2B metalloprotease on CD8^+ T cells.

[6] = target: T4, TRABD2A protein on CD8^+ T cells (Homo sapiens, UniProt Q86V40); experiment: Killing of target cells by CD8+ T cells after intervention with TRABD2A antibody; format: cell-based; details: antibody removed or unremoved after incubation; FIG. 7A
T4 construct: action of metal ions Mn^2+, Co^2+ and Ni^2+ on TRABD2A metalloprotease on CD8^+ T cells; endogenous in cells
T4 sequence (Q86V40 22-480): T1 sequence (Q86V40 22-480)
Experimental: Two modes were adopted for intervening with TRABD2A protein on CD8^+ T cells, and the difference of the two modes was that the CD8^+ T cells, after incubation with the antibody, kill the target cells with residual blocking antibody removed or unremoved.

TRABD2A protein [7] = target: T1, TRABD2A protein; experiment: Binding of synthesized TRABD2A antibodies to antigen; details: detection with antigen; FIG. 6A
Excerpt: Three antibodies anti-TRABD2A-1 (amino acid sequences of heavy and light chains are set forth in SEQ ID NOs: 7 and 8, respectively), anti-TRABD2A-2 (amino acid sequences of heavy and light chains are set forth in SEQ ID NOs: 13 and 14, respectively) and negative control (amino acid sequences of heavy and light chains are set forth in SEQ ID NOs: 19 and 20, respectively) synthesized in Example 5-1 were used. […] After concentration of the antibodies, the protein concentrations were measure by A280, and the concentrations of anti-TRABD2A-1, anti-TRABD2A-2 and negative control were 0.92 mg/mL, 1.6 mg/mL and 2.98 mg/mL, respectively. The proteins were snap frozen in liquid nitrogen and stored at −80° C. for later use.

[8] = target: T5, TRABD2A protein (antigen) (UniProt Q86V40 22-480); experiment: ELISA
T5 chain: T1 sequence (Q86V40 22-480)

TRABD2A protein [9] = target: T1, TRABD2A protein; experiment: Binding of anti-TRABD2A/2B bispecific antibody to antigen TRABD2A protein; details: detection with antigen; FIG. 6C
Experimental: (§1) The bispecific antibody (amino acid sequences of heavy and light chains are set forth in SEQ IN NOs: 29 and 30, respectively) and negative control (amino acid sequences of heavy and light chains are set forth in SEQ IN NOs: 33 and 24, respectively) antibody synthesized in Example 5-3 were used. […] After the antibodies were concentrated, the protein concentration of anti-TRABD2A/2B was 1.23 mg/mL and that of the negative control was 1.02 mg/mL, as measured by A280. The proteins were snap frozen in liquid nitrogen and stored at −80° C. for later use.

TRABD2B protein = target: T6, TRABD2B protein (Homo sapiens, UniProt A6NFA1); experiment: Binding of anti-TRABD2A/2B bispecific antibody to antigen TRABD2B protein; details: detection with antigen; FIG. 6C
T6 sequence (A6NFA1 20-486): T3 sequence (A6NFA1 20-486)
Experimental: as §1

[10] = tested on: TRABD2A and TRABD2B proteins; experiment: Killing of target cells by CD8+ T cells under intervention with bispecific anti-TRABD2A/2B antibody; format: cell-based, human; details: FIG. 7C
Excerpt: The effect of the bispecific antibody blocking both TRABD2A and TRABD2B proteins on target cell killing ability of CD8^+ T cells were examined.

With `[Ca+2]` [Ca^2+] as the molecule, how does the “activity of the TRABD2A protein” value (TRABD2A protein [1]) read?
Its value is “independent”.

With `[Mg+2]` [Mg^2+] as the molecule, how does the “activity of the TRABD2A protein” value (TRABD2A protein [1]) read?
Its value is “independent”.

With `c1cnc2c(c1)ccc1cccnc12` [1,10-phenanthroline] as the molecule, how does the “function of TRABD protein” value (TRABD protease) read?
The value was “inhibited”.

With `O=C(O)CN(CCN(CC(=O)O)CC(=O)O)CC(=O)O` [EDTA] as the molecule, how does the “function of TRABD protein” value (TRABD protease) read?
Its value is “inhibited”.

With `[Co+2]` [Co^2+] as the molecule, how does the “activity of the TRABD2A protein” value (TRABD2A protein [1]) read?
The value was “inhibited”.

What about the “tumor killing ability of CD8^+ T cells” value [2] of the same molecule?
The value was “enhanced”.

And the “toxic effect on CD8^+ T cells and target cells” value [3]?
The value was “little toxic effect”.

And the TRABD protease activity (TRABD protease)?
The TRABD protease activity was “increase”.

With `[Cu+2]` [Cu^2+] as the molecule, how does the TRABD protease activity (TRABD protease) read?
Its TRABD protease activity is “opposite effect”.

Which EC50 [4] does the source give for “negative control antibody of Example 6-1” here?
The EC50 was 14.1 µg/mL.

For `[Mn+2]` [Mn^2+], which “tumor killing ability of CD8^+ T cells” value [2] is on record?
The value was “not enhanced”.

What about the TRABD protease activity (TRABD protease) of the same molecule?
The TRABD protease activity was “increase”.

Which “activity of the TRABD2A protein” value (TRABD2A protein [1]) does the source give for `[Fe+3]` [Fe^3+] here?
The value was “independent”.

With `[Ni+2]` [Ni^2+] as the molecule, how does the “activity of the TRABD2A protein” value (TRABD2A protein [1]) read?
Its value is “inhibited”.

And the “toxic effect on cells” value (target cells)?
The value was “little toxic effect”.

What about the “tumor killing ability of CD8^+ T cells” value [5] of the same molecule?
The value was “enhanced”.

What about the “tumor killing ability of CD8^+ T cells” value [2] of the same molecule?
The value was “enhanced”.

What about the “toxic effect on CD8^+ T cells and target cells” value [3] of the same molecule?
The value was “little toxic effect”.

And the TRABD protease activity (TRABD protease)?
The TRABD protease activity was “opposite effect”.

B1: anti-TRABD2A-2 (antibody)
heavy: APKLLIYAASSLRSGVPSRFSGSTCRASQSINRYLNWYQAPKLLIYAASSLRSGVPSRFSGSYAASSLQSGVPSRFSGSGSGTDFTLTISSLQPEDFATYYCQQGGTKV
light: YYWGQGTPVTVSKKPGSSVKVSAPKLLIYAASSLRSGVPSRFSGSGTFSSYAISWVRQAPGQGLEWMGGIIPIFGTANYAQKFQGRVTITADESTSTAYMELSSLRSEDTA
Which “effect on target cell killing ability of CD8^+ T cells” value [6] does the source give for B1 here?
The value was “enhanced effect”.

And the binding to antigen (TRABD2A protein [7])?
The binding to antigen was “high binding efficiency”.

What about the EC50 [8] of the same molecule?
Its EC50 is 0.128 µg/mL.

B2: anti-TRABD2A/2B bispecific antibody: bispecific antibody recognizing both TRABD2A and TRABD2B; heavy and light chains SEQ ID NOs: 29 and 30 (antibody)
heavy: YQSQSINRYLNWYQQKPGKSNYLNWAPKLVIYAASSLQYCQQYNFYPLTFGYLNWYQSSGTYLNWYQQRPGKAPSSGTYQRPGKAPGGTKVSNYLNWYQSN
light: YAQKFQGRVTITVKVSCKASGGTFSSYAISWVRQAPGQGLEWMGQVQLVQSGAEVKKPGSSGIIPIFGTANADESTSTAYMELSSLRSEDTAVYYCARTRGYS
Which results are given for B2?
binding to TRABD2A (TRABD2A protein [9]): capable of binding; binding to TRABD2B (TRABD2B protein): capable of binding; effect on the killing of target cells by CD8^+ T cells [10]: enhancing effect

B3: anti-TRABD2A-1 (antibody)
heavy: DASTLQRGVPSRFGGSGQMTQSPSSASTLQRGVPSRFGGSGSQSINRASTLQRGVPSRFGGSGGKAPKLVIYAASSLQSGVPSRFSGSGSGTDFTLTISSLQ
light: ASTLQRGVISWVRASTLQRGVPSRFGGSGPIFGTANYAQKFQGRVTITADESTSTAYMELSSLRSEDTAVYYASTLQRGVPSRFGGSGYYWGQGTPVTVSS
What does the source list for B3?
effect on target cell killing ability of CD8^+ T cells [6]: enhanced effect; binding to antigen (TRABD2A protein [7]): high binding efficiency; EC50 [8]: 0.306 µg/mL
